Laboratory results: ChEMBL document CHEMBL1629585, “Nationwide survey of CTX-M-type extended-spectrum beta-lactamases among Klebsiella pneumoniae isolates in Slovenian hospitals” (2009)
In brackets after ≈: the same amount, converted by molar mass.

Assays:
Escherichia coli [1] = assay: Antibacterial activity against Escherichia coli TrC A expressing Klebsiella pneumoniae A blaCTX-M beta-lactamase by Etest method; type: functional
Escherichia coli [2] = assay: Antibacterial activity against Escherichia coli TrC C expressing Klebsiella pneumoniae C blaCTX-M beta-lactamase by Etest method; type: functional
Klebsiella pneumoniae [3] = assay: Antibacterial activity against Klebsiella pneumoniae C expressing CTX-M group 1 beta-lactamase by Etest method; type: functional
Escherichia coli [4] = assay: Antibacterial activity against Escherichia coli TrC B expressing Klebsiella pneumoniae B blaCTX-M beta-lactamase by Etest method; type: functional
Klebsiella pneumoniae [5] = assay: Antibacterial activity against Klebsiella pneumoniae expressing CTX-M group 1 beta-lactamase by Etest method; type: functional
Klebsiella pneumoniae [6] = assay: Antibacterial activity against Klebsiella pneumoniae B expressing CTX-M group 1 beta-lactamase by Etest method in presence of clavulanic acid; type: functional
Klebsiella pneumoniae [7] = assay: Antibacterial activity against Klebsiella pneumoniae A expressing CTX-M group 1 beta-lactamase by Etest method; type: functional
Escherichia coli [8] = assay: Antibacterial activity against Escherichia coli TrC B expressing Klebsiella pneumoniae B blaCTX-M beta-lactamase by Etest method in presence of clavulanic acid
Escherichia coli [9] = assay: Antibacterial activity against Escherichia coli TrC A expressing Klebsiella pneumoniae A blaCTX-M beta-lactamase by Etest method in presence of clavulanic acid
Escherichia coli [10] = assay: Antibacterial activity against Escherichia coli TrC C expressing Klebsiella pneumoniae C blaCTX-M beta-lactamase by Etest method in presence of clavulanic acid
Klebsiella pneumoniae [11] = assay: Antibacterial activity against Klebsiella pneumoniae A expressing CTX-M group 1 beta-lactamase by Etest method in presence of clavulanic acid; type: functional
Klebsiella pneumoniae [12] = assay: Antibacterial activity against Klebsiella pneumoniae expressing CTX-M group 1 beta-lactamase by Etest method in presence of clavulanic acid; type: functional
Escherichia coli [13] = assay: Antibacterial activity against rifampicin resistant Escherichia coli J53-2 by Etest method
Klebsiella pneumoniae [14] = assay: Antibacterial activity against Klebsiella pneumoniae C expressing CTX-M group 1 beta-lactamase by Etest method in presence of clavulanic acid; type: functional
Klebsiella pneumoniae [15] = assay: Antibacterial activity against Klebsiella pneumoniae D expressing CTX-M group 1 beta-lactamase by Etest method in presence of clavulanic acid; type: functional
Klebsiella pneumoniae [16] = assay: Antibacterial activity against Klebsiella pneumoniae D expressing CTX-M group 1 beta-lactamase by Etest method; type: functional
Klebsiella pneumoniae [17] = assay: Antibacterial activity against Klebsiella pneumoniae B expressing CTX-M group 1 beta-lactamase by Etest method; type: functional
Escherichia coli [18] = assay: Antibacterial activity against rifampicin resistant Escherichia coli J53-2 by Etest method in presence of clavulanic acid; type: functional
Escherichia coli [19] = assay: Antibacterial activity against Escherichia coli TrC B expressing Klebsiella pneumoniae B blaCTX-M beta-lactamase by Etest method in presence of Tazobactam; type: functional
Klebsiella pneumoniae [20] = assay: Antibacterial activity against Klebsiella pneumoniae A expressing CTX-M group 1 beta-lactamase by Etest method in presence of Tazobactam; type: functional
Escherichia coli [21] = assay: Antibacterial activity against rifampicin resistant Escherichia coli J53-2 by Etest method in presence of Tazobactam; type: functional
Escherichia coli [22] = assay: Antibacterial activity against Escherichia coli TrC A expressing Klebsiella pneumoniae A blaCTX-M beta-lactamase by Etest method in presence of Tazobactam; type: functional
Escherichia coli [23] = assay: Antibacterial activity against Escherichia coli TrC C expressing Klebsiella pneumoniae C blaCTX-M beta-lactamase by Etest method in presence of Tazobactam; type: functional
Klebsiella pneumoniae [24] = assay: Antibacterial activity against Klebsiella pneumoniae C expressing CTX-M group 1 beta-lactamase by Etest method in presence of Tazobactam; type: functional
Klebsiella pneumoniae [25] = assay: Antibacterial activity against Klebsiella pneumoniae B expressing CTX-M group 1 beta-lactamase by Etest method in presence of Tazobactam; type: functional

Molecule | MIC (Escherichia coli [1]) [µg/mL] | MIC (Escherichia coli [2]) [µg/mL] | MIC50 (Klebsiella pneumoniae [3]) [µg/mL] | MIC90 (Klebsiella pneumoniae [3]) [µg/mL] | MIC (Escherichia coli [4]) [µg/mL] | MIC50 (Klebsiella pneumoniae [5]) [µg/mL] | MIC90 (Klebsiella pneumoniae [5]) [µg/mL] | MIC (Klebsiella pneumoniae [6]) [µg/mL] | MIC (Klebsiella pneumoniae [3]) [µg/mL] | MIC (Klebsiella pneumoniae [7]) [µg/mL] | MIC50 (Klebsiella pneumoniae [7]) [µg/mL] | MIC90 (Klebsiella pneumoniae [7]) [µg/mL] | MIC (Escherichia coli [13]) [µg/mL] | MIC (Klebsiella pneumoniae [16]) [µg/mL] | MIC50 (Klebsiella pneumoniae [16]) [µg/mL] | MIC90 (Klebsiella pneumoniae [16]) [µg/mL] | MIC (Klebsiella pneumoniae [17]) [µg/mL] | MIC50 (Klebsiella pneumoniae [17]) [µg/mL] | MIC90 (Klebsiella pneumoniae [17]) [µg/mL] | MIC (Klebsiella pneumoniae [5]) [µg/mL] | also measured
GENTAMICIN | 4 | 16 | 128 | > 256 | 32 | 64 | > 256 |  |  |  |  |  |  |  |  |  |  |  |  |  | 
CC(C)(O/N=C(\C(=O)N[C@@H]1C(=O)N2C(C(=O)[O-])=C(C[n+]3ccccc3)CS[C@H]12)c1csc(N)n1)C(=O)O [CEFTAZIDIME] | 32 (≈ 58.5 µM) | 128 (≈ 234 µM) | 192 (≈ 351 µM) | > 256 | 64 (≈ 117 µM) | 48 (≈ 87.8 µM) | 128 (≈ 234 µM) | 0.25 | 16 (≈ 29.3 µM) | 16 (≈ 29.3 µM) | 32 (≈ 58.5 µM) | 96 (≈ 176 µM) | 0.5 (≈ 0.915 µM) | 24 (≈ 43.9 µM) | 48 (≈ 87.8 µM) | 128 (≈ 234 µM) | 24 (≈ 43.9 µM) | 32 (≈ 58.5 µM) | 64 (≈ 117 µM) | 4 (≈ 7.32 µM) | MIC50 (Klebsiella pneumoniae [6]): 0.38 µg/mL; MIC90 (Klebsiella pneumoniae [6]): 0.5 µg/mL; MIC (Escherichia coli [8]): 0.5 µg/mL; MIC (Escherichia coli [9]): 0.5 µg/mL; MIC (Escherichia coli [10]): 0.5 µg/mL; MIC (Klebsiella pneumoniae [11]): 0.19 µg/mL; MIC50 (Klebsiella pneumoniae [11]): 0.25 µg/mL; MIC90 (Klebsiella pneumoniae [11]): 0.5 µg/mL; MIC (Klebsiella pneumoniae [12]): 0.125 µg/mL; MIC50 (Klebsiella pneumoniae [12]): 0.25 µg/mL; MIC90 (Klebsiella pneumoniae [12]): > 4 µg/mL; MIC (Klebsiella pneumoniae [14]): 0.38 µg/mL; MIC50 (Klebsiella pneumoniae [14]): 0.75 µg/mL; MIC90 (Klebsiella pneumoniae [14]): 1 µg/mL; MIC (Klebsiella pneumoniae [15]): 0.19 µg/mL; MIC50 (Klebsiella pneumoniae [15]): 0.38 µg/mL; MIC90 (Klebsiella pneumoniae [15]): 0.5 µg/mL; MIC (Escherichia coli [18]): 0.25 µg/mL
CO[C@@]1(NC(=O)Cc2cccs2)C(=O)N2C(C(=O)O)=C(COC(N)=O)CS[C@@H]21 [CEFOXITIN] | 16 (≈ 37.4 µM) | 8 (≈ 18.7 µM) | 12 (≈ 28.1 µM) | 48 (≈ 112 µM) | 8 (≈ 18.7 µM) | 3 (≈ 7.02 µM) | 48 (≈ 112 µM) |  | 8 (≈ 18.7 µM) | 3 (≈ 7.02 µM) | 4 (≈ 9.36 µM) | 24 (≈ 56.1 µM) | 8 (≈ 18.7 µM) | 3 (≈ 7.02 µM) | 4 (≈ 9.36 µM) | 16 (≈ 37.4 µM) | 8 (≈ 18.7 µM) | 8 (≈ 18.7 µM) | 16 (≈ 37.4 µM) | 1.5 (≈ 3.51 µM) | 
CO/N=C(\C(=O)N[C@@H]1C(=O)N2C(C(=O)O)=C(COC(C)=O)CS[C@H]12)c1csc(N)n1 [CEFOTAXIME] | 256 (≈ 562 µM) | 256 (≈ 562 µM) | > 256 | > 256 | 256 (≈ 562 µM) | > 256 | > 256 | 0.047 | > 256 | 64 (≈ 141 µM) | > 256 | > 256 | 0.25 (≈ 0.549 µM) | > 256 | > 256 | > 256 | 96 (≈ 211 µM) | > 256 | > 256 | 48 (≈ 105 µM) | MIC50 (Klebsiella pneumoniae [6]): 0.094 µg/mL; MIC90 (Klebsiella pneumoniae [6]): 0.094 µg/mL; MIC (Escherichia coli [8]): 0.125 µg/mL; MIC (Escherichia coli [9]): 0.125 µg/mL; MIC (Escherichia coli [10]): 0.125 µg/mL; MIC (Klebsiella pneumoniae [11]): 0.023 µg/mL; MIC50 (Klebsiella pneumoniae [11]): 0.023 µg/mL; MIC90 (Klebsiella pneumoniae [11]): 0.19 µg/mL; MIC (Klebsiella pneumoniae [12]): 0.032 µg/mL; MIC50 (Klebsiella pneumoniae [12]): 0.047 µg/mL; MIC90 (Klebsiella pneumoniae [12]): > 1 µg/mL; MIC (Klebsiella pneumoniae [14]): 0.047 µg/mL; MIC50 (Klebsiella pneumoniae [14]): 0.125 µg/mL; MIC90 (Klebsiella pneumoniae [14]): > 1 µg/mL; MIC (Klebsiella pneumoniae [15]): 0.047 µg/mL; MIC50 (Klebsiella pneumoniae [15]): 0.047 µg/mL; MIC90 (Klebsiella pneumoniae [15]): 0.125 µg/mL; MIC (Escherichia coli [18]): ≤ 0.06 µg/mL
C[C@]1(Cn2ccnn2)[C@H](C(=O)O)N2C(=O)C[C@H]2S1(=O)=O [TAZOBACTAM] |  |  |  |  |  |  |  |  |  |  |  |  |  |  |  |  |  |  |  |  | MIC (Escherichia coli [19]): 16 µg/mL; MIC (Klebsiella pneumoniae [20]): 4 µg/mL; MIC (Escherichia coli [21]): 4 µg/mL; MIC (Escherichia coli [22]): 4 µg/mL; MIC (Escherichia coli [23]): 16 µg/mL; MIC (Klebsiella pneumoniae [24]): > 64 µg/mL; MIC (Klebsiella pneumoniae [25]): > 64 µg/mL
C[C@@H](O)[C@H]1C(=O)N2C(C(=O)O)=C(SCCNC=N)C[C@H]12 [IMIPENEM ANHYDROUS] |  |  | 0.19 (≈ 0.635 µM) | 0.38 (≈ 1.27 µM) |  | 0.25 (≈ 0.835 µM) | 0.5 (≈ 1.67 µM) |  | 0.19 (≈ 0.635 µM) | 0.19 (≈ 0.635 µM) | 0.25 (≈ 0.835 µM) | 0.38 (≈ 1.27 µM) |  | 0.19 (≈ 0.635 µM) | 0.25 (≈ 0.835 µM) | 0.25 (≈ 0.835 µM) | 0.125 (≈ 0.418 µM) | 0.19 (≈ 0.635 µM) | 0.19 (≈ 0.635 µM) | 0.19 (≈ 0.635 µM) | 
